Measurements taken from ChEMBL document CHEMBL3046897, “Synthesis of 3-{4-[4-dimethylamino-6-(4-methyl-2-oxo-2H-chromen-7-yloxy)-[1,3,5]triazin-2-ylamino]-phenyl}-2-phenyl-5-(4-pyridin-2-yl-piperazin-1-ylmethyl)-thiazolidin-4-one and their biological evaluation” (2012).
≈ marks a conversion by molar mass, not a printed value.

How the values were obtained:
Format in all cases: functional
[1] = system: Shigella flexneri; assay: Antibacterial activity against Shigella flexneri after 24 hr by agar streak dilution method
[2] = system: Proteus vulgaris; assay: Antibacterial activity against Proteus vulgaris after 24 hr by agar streak dilution method
[3] = system: Salmonella typhi; assay: Antibacterial activity against Salmonella enterica subsp. enterica serovar Typhi after 24 hr by agar streak dilution method
[4] = system: Klebsiella pneumoniae; assay: Antibacterial activity against Klebsiella pneumoniae after 24 hr by agar streak dilution method
[5] = system: Candida albicans; assay: Antifungal activity against Candida albicans at 100 ug/disk after 48 hr by paper disk diffusion method; conditions: read-out: IZ
[6] = system: Aspergillus clavatus; assay: Antifungal activity against Aspergillus clavatus at 100 ug/disc after 48 hr by paper disk diffusion method; conditions: read-out: IZ
[7] = system: Aspergillus fumigatus; assay: Antifungal activity against Aspergillus fumigatus at 100 ug/disc after 48 hr by paper disk diffusion method; conditions: read-out: IZ
[8] = system: Aspergillus niger; assay: Antifungal activity against Aspergillus niger at 100 ug/disk after 48 hr by paper disk diffusion method; conditions: read-out: IZ
[9] = system: Candida albicans; assay: Antifungal activity against Candida albicans after 48 hr by agar streak dilution method
[10] = system: Aspergillus clavatus; assay: Antifungal activity against Aspergillus clavatus after 48 hr by agar streak dilution method
[11] = system: Aspergillus niger; assay: Antifungal activity against Aspergillus niger after 48 hr by agar streak dilution method
[12] = system: Pseudomonas aeruginosa; assay: Antibacterial activity against Pseudomonas aeruginosa after 24 hr by agar streak dilution method
[13] = system: Escherichia coli; assay: Antibacterial activity against Escherichia coli after 24 hr by agar streak dilution method
[14] = system: Shigella flexneri; assay: Antibacterial activity against Shigella flexneri at 100 ug/disc after 24 hr by paper disk diffusion method; conditions: read-out: IZ
[15] = system: Proteus vulgaris; assay: Antibacterial activity against Proteus vulgaris at 100 ug/disk after 24 hr by paper disk diffusion method; conditions: read-out: IZ
[16] = system: Salmonella typhi; assay: Antibacterial activity against Salmonella enterica subsp. enterica serovar Typhi at 100 ug/disk after 24 hr by paper disk diffusion method; conditions: read-out: IZ
[17] = system: Klebsiella pneumoniae; assay: Antibacterial activity against Klebsiella pneumoniae at 100 ug/disk after 24 hr by paper disk diffusion method; conditions: read-out: IZ
[18] = system: Pseudomonas aeruginosa; assay: Antibacterial activity against Pseudomonas aeruginosa at 100 ug/disk after 24 hr by paper disk diffusion method; conditions: read-out: IZ
[19] = system: Escherichia coli; assay: Antibacterial activity against Escherichia coli at 100 ug/disk after 24 hr by paper disk diffusion method; conditions: read-out: IZ
[20] = system: Bacillus subtilis; assay: Antibacterial activity against Bacillus subtilis after 24 hr by agar streak dilution method
[21] = system: Staphylococcus aureus; assay: Antibacterial activity against Staphylococcus aureus after 24 hr by agar streak dilution method
[22] = system: Bacillus subtilis; assay: Antibacterial activity against Bacillus subtilis at 100 ug/disk after 24 hr by paper disk diffusion method; conditions: read-out: IZ
[23] = system: Staphylococcus aureus; assay: Antibacterial activity against Staphylococcus aureus at 100 ug/disc after 24 hr by paper disk diffusion method; conditions: read-out: IZ
[24] = system: Aspergillus fumigatus; assay: Antifungal activity against Aspergillus fumigatus after 48 hr by agar streak dilution method

Structure (SMILES)	MIC [1] [µg/mL]	MIC [2] [µg/mL]	MIC [3] [µg/mL]	MIC [4] [µg/mL]	zone of inhibition at 100 µg/disc [5] [mm]	zone of inhibition at 100 µg/disc [6] [mm]	zone of inhibition at 100 µg/disc [7] [mm]	zone of inhibition at 100 µg/disc [8] [mm]	MIC [9] [µg/mL]	MIC [10] [µg/mL]	MIC [11] [µg/mL]	MIC [12] [µg/mL]	MIC [13] [µg/mL]	zone of inhibition at 100 µg/disc [14] [mm]	zone of inhibition at 100 µg/disc [15] [mm]	zone of inhibition at 100 µg/disc [16] [mm]	zone of inhibition at 100 µg/disc [17] [mm]	zone of inhibition at 100 µg/disc [18] [mm]	zone of inhibition at 100 µg/disc [19] [mm]	MIC [20] [µg/mL]	other results
Cc1cc(=O)oc2cc(Oc3nc(Nc4ccc(N5C(=O)C(CN6CCN(c7ccccn7)CC6)SC5c5ccc(F)cc5)cc4)nc(N(C)C)n3)ccc12 (stereo not given)	25 (≈ 32.9 µM)	12.5 (≈ 16.5 µM)	50 (≈ 65.8 µM)	50 (≈ 65.8 µM)	27	26	21	29	6.25 (≈ 8.23 µM)	6.25 (≈ 8.23 µM)	6.25 (≈ 8.23 µM)	6.25 (≈ 8.23 µM)	25 (≈ 32.9 µM)	21	22	19	18	26	20	12.5 (≈ 16.5 µM)	MIC [21]: 6.25 µg/mL (≈ 8.23 µM); zone of inhibition at 100 µg/disc [22]: 23 mm; zone of inhibition at 100 µg/disc [23]: 28 mm; MIC [24]: 12.5 µg/mL (≈ 16.5 µM)
Cc1cc(=O)oc2cc(Oc3nc(Nc4ccc(/N=C/c5ccc(O)cc5)cc4)nc(N(C)C)n3)ccc12	100 (≈ 197 µM)	50 (≈ 98.3 µM)	50 (≈ 98.3 µM)	100 (≈ 197 µM)	16	14	18	20	100 (≈ 197 µM)	100 (≈ 197 µM)	50 (≈ 98.3 µM)	50 (≈ 98.3 µM)	25 (≈ 49.2 µM)	17	19	19	11	18	20	50 (≈ 98.3 µM)	MIC [21]: 25 µg/mL (≈ 49.2 µM); zone of inhibition at 100 µg/disc [22]: 18 mm; zone of inhibition at 100 µg/disc [23]: 20 mm; MIC [24]: 50 µg/mL (≈ 98.3 µM)
COc1ccc(C2SC(CN3CCN(c4ccccn4)CC3)C(=O)N2c2ccc(Nc3nc(Oc4ccc5c(C)cc(=O)oc5c4)nc(N(C)C)n3)cc2)cc1 (stereo not given)	100 (≈ 130 µM)	50 (≈ 64.8 µM)	25 (≈ 32.4 µM)	50 (≈ 64.8 µM)	23	19	20	22	25 (≈ 32.4 µM)	50 (≈ 64.8 µM)	25 (≈ 32.4 µM)	100 (≈ 130 µM)	100 (≈ 130 µM)	17	20	22	19	18	16	25 (≈ 32.4 µM)	MIC [21]: 25 µg/mL (≈ 32.4 µM); zone of inhibition at 100 µg/disc [22]: 19 mm; zone of inhibition at 100 µg/disc [23]: 21 mm; MIC [24]: 25 µg/mL (≈ 32.4 µM)
Cc1ccc(C2SCC(=O)N2c2ccc(Nc3nc(Oc4ccc5c(C)cc(=O)oc5c4)nc(N(C)C)n3)cc2)cc1 (stereo not given)	25 (≈ 43.1 µM)	100 (≈ 172 µM)	25 (≈ 43.1 µM)	100 (≈ 172 µM)	20	19	18	20	50 (≈ 86.1 µM)	50 (≈ 86.1 µM)	25 (≈ 43.1 µM)	50 (≈ 86.1 µM)	100 (≈ 172 µM)	20	14	19	15	20	13	25 (≈ 43.1 µM)	MIC [21]: 50 µg/mL (≈ 86.1 µM); zone of inhibition at 100 µg/disc [22]: 19 mm; zone of inhibition at 100 µg/disc [23]: 18 mm; MIC [24]: 50 µg/mL (≈ 86.1 µM)
COc1ccc(C2SCC(=O)N2c2ccc(Nc3nc(Oc4ccc5c(C)cc(=O)oc5c4)nc(N(C)C)n3)cc2)cc1OC (stereo not given)	50 (≈ 79.8 µM)	100 (≈ 160 µM)	100 (≈ 160 µM)	100 (≈ 160 µM)	< 10	13	< 10	15	100 (≈ 160 µM)	100 (≈ 160 µM)	100 (≈ 160 µM)	100 (≈ 160 µM)	100 (≈ 160 µM)	17	12	14	< 10	12	11	100 (≈ 160 µM)	MIC [21]: 50 µg/mL (≈ 79.8 µM); zone of inhibition at 100 µg/disc [22]: 14 mm; zone of inhibition at 100 µg/disc [23]: 17 mm; MIC [24]: 100 µg/mL (≈ 160 µM)
